From ChEMBL document CHEMBL3886281, “Furo[3,4-c]quinoline derivatives, medicaments containing such compounds, their use and process for their preparation” (2015)

Target: T1, Cholesteryl ester transfer protein (Homo sapiens, UniProt P11597)
T1 sequence (P11597 whole entry): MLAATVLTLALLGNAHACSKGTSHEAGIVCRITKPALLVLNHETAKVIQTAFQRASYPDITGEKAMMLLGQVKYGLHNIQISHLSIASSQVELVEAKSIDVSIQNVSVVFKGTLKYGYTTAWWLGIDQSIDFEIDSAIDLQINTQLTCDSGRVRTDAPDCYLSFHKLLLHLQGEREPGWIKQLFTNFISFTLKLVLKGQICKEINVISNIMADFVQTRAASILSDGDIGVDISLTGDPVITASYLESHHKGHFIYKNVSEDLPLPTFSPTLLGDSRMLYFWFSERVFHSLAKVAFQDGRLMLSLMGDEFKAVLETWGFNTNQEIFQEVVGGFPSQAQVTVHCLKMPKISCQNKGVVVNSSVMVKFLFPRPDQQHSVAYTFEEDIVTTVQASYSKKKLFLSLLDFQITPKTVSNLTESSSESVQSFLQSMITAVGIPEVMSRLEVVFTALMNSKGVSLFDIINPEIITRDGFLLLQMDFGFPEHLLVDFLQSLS
Assay: CETP In Vitro Assay: CETP inhibitory activity of compounds of the present invention can be determined in a fluorometric assay purchased from Roar Biomedical, Inc. (New York, N.Y., USA). […] Recombinant human CETP was partially purified from medium conditioned by CETP expressing CHO cells. In a 384 well format 2.5 ul of compound solution in DMSO was combined with 2 ul of donor solution, 2 ul of acceptor solution and 0.8 ul of recombinant human CETP solution in a total volume of 100 ul with assay buffer and incubated for 3 hours at 37° C. The fluorescence intensity was measured at excitation wavelength of 485 nm and emission wavelength of 535 nm.

CC(C)c1nc2c(c3c1[C@@H](c1ccc(C(F)(F)F)nc1)OC31CCOCC1)[C@@H](O)CC1(CC1)[C@H]2O
IC50: 210 nM
